{"source": "patent US20030054029A1", "about": "“IIB/IIIA ANTAGONISTS CO-ADMINISTERED WITH ASPIRIN” (priority 1997, published 2003)", "key": {"[1]": {"system": "occlusive thrombus in left circumflex coronary artery (LCCA)", "assay": "Anesthetized canine model of coronary thrombosis (anodal current stimulation of the LCCA)", "format": "in vivo, dog", "protocol": "Sixty-six mongrel dogs of either sex weighing between 14 and 26 kg were anesthetized by intravenous administration of pentobarbital sodium solution (30 mg/kg). A supplemental dose of the anesthetic (65 to 130 mg) was administered as required. The dogs were endotracheally intubated and placed on a respirator (Biological Research Apparatus, Comerio-Varese, Italy) with the stroke volume adjusted to 20 ml/kg and a frequency of 12 breaths/minute. Peripheral arterial blood pressure was monitored with a pressure transducer (Micron Instruments, Simi Valley, Calif.) connected to a catheter placed in the right femoral artery. A catheter was inserted into the right femoral vein for withdrawing blood samples and another was inserted into the left jugular vein for administering intravenous fluids. A left thoracotomy was performed in the fifth intercostal space and the heart was suspended in a pericardial cradle. A 2 to 3-cm segment of the left circumflex coronary artery (LCCA) was isolated distal to the first diagonal branch. The small intervening coronary branches over the isolated segment were ligated. The artery was instrumented from proximal to distal with an ultrasonic flow probe, a stimulation electrode, and a Goldblatt clamp. The flow probe was connected to a Doppler flow meter (Crystal Biotech, Hopkinton, Mass.) in order to monitor the mean and the phasic LCCA blood flow velocities. The stimulation electrode and its placement in the LCCA and the methodology to induce an occlusive coronary thrombus are described in detail in Mickelson et al. Circulation, 1990; 81:617-627; Shebuski et al., Circulation, 1990; 82:169-177; and Tschopp et al., Coronary Artery Des., 1993; 4:809-817. Briefly, the needle tip of the electrode was inserted into the LCCA, ensuring its contact with the intraluminal surface of the vessel just under the Goldblatt clamp. The clamp was adjusted to reduce the peak reactive hyperemia following a 10-second period of total occlusion, without affecting the baseline mean LCCA blood flow velocity. Continuous recordings of blood pressure and LCCA blood flow velocity (mean and phasic) were obtained on a multichannel recorder (Gould Inc., Cleveland, Ohio).\nApproximately 30 minutes after the preparation of the dogs, the study was continued by the administration of one of the treatments presented in Table 2.\nThe 0.6×SCa, 0.5×SCa and 0.4×SCa doses in Table 2 represent the reduced doses of the highest dose of SCa tested. Each dog was utilized only once. At 30 minutes, the stimulation electrode was then connected in series with a 12 K Ohms-112 K Ohms variable resistor to the positive terminal of a 9-V battery. The electrical circuit was completed by securing a needle electrode into a subcutaneous site and to the negative terminal of the battery. The anodal current delivered to the tip of the stimulation electrode was monitored and maintained at 250 μA. The number and the frequency of cyclic flow variations (CFV) that preceded the formation of an occlusive thrombus were recorded. CFV were observed as spontaneous shifts in mean and phasic LCCA blood flow velocity, with the sudden return of these variables to baseline. Proper positioning of the electrode in the LCCA was confirmed by visual inspection at the end of the experiment. Each experiment lasted for 180 minutes of anodal current unless the dog died after an occlusive thrombus was formed."}, "[2]": {"system": "Dog PRP platelet aggregation", "assay": "In-Vitro Platelet Aggregation in PRP (ADP-induced)", "format": "cell-based", "conditions": "Canis lupus familiaris; ADP 50 um final concentration, dog platelet-rich plasma", "protocol": "Healthy male or female dogs were fasted for 8 hours prior to drawing blood; then 30 ml whole blood was collected using a butterfly needle and 30 cc plastic syringe with 3 ml of 0.129 M buffered sodium citrate (3.8%). The syringe was rotated carefully as blood was drawn to mix the citrate. Platelet-rich plasma (PRP) was prepared by centrifugation at 975×g for 3.17 minutes at room temperature allowing the centrifuge to coast to a stop without braking. The PRP was removed from the blood with a plastic pipette and placed in a plastic capped, 50 mL Corning conical sterile centrifuge tube which was held at room temperature. Platelet poor plasma (PPP) was prepared by centrifuging the remaining blood at 2000×g for 15 minutes at room temperature allowing the centrifuge to coast to a stop without braking. The PRP was adjusted with PPP to a count of 2-3×10^8 platelets per mL. 400 uL of the PRP preparation and 50 uL of the compounds solution to be tested or saline were preincubated for 1 minute at 37° C. in an aggregometer (BioData, Horsham, Pa.). 50 uL of adenosine 5′ diphosphate (ADP) (50 um final concentration) was added to the cuvettes and the aggregation was monitored for 1 minute. All compounds are tested in duplicate. Results are calculated as follows: Percent of control=[(maximal OD minus initial OD of compound) divided by (maximal OD minus initial OD of control saline)]×100. […]"}, "[3]": {"system": "collagen-induced platelet aggregation", "assay": "Ex vivo collagen-induced platelet aggregation in PRP of treated dogs", "parameters": "species or system dog", "conditions": "mean±SEM", "protocol": "Peripheral venous blood was collected into citrated Vacutainer tubes (containing 0.3 ml of 3.8% sodium citrate solution) and platelet-rich plasma (PRP) was obtained by centrifugation (model Technospin R, Sorvall Instruments, DuPont, Wilmington, Del.) the blood at 266×g for 6 minutes at 24° C. Platelet-poor plasma (PPP) was obtained by further centrifugation at 2000×g for 10 minutes at 24° C. Samples were assayed on an aggregometer (model PAP-4, Bio/Data Corporation, Hatboro, Pa.) with PPP as the blank. The aggregations were performed by adding 50 μl of collagen ([…] final concentration) to 450 μl of PRP and measuring aggregation for 3 minutes. Blood samples used in platelet aggregation were collected at the following time periods: before treatment administration (baseline), immediately before anodal stimulation (at 30 minutes), at 60 minutes, then at 1-hour intervals to the end of experimentation. The blood samples at 60, 120 and 180 minutes were averaged (since the three blood samples yielded similar data) to obtain the steady-state platelet inhibition value for all comparisons except for saline and heparin (since no 120-minute sample was taken, 60 and 180 minute samples were used). Results are expressed as percent inhibition and represent steady-state conditions."}, "[4]": {"assay": "Bioassay for SCa plasma levels", "format": "in vivo", "conditions": "steady state, dog plasma, mean ± SEM", "protocol": "SCa plasma levels were determined from the blood samples used for platelet aggregation. Plasma levels of SCa were measured using a modification of a bioassay method previously described in Salyers et al., Throm. Res., 1994, 75:409-417. The bioassay used plasma from treated dogs as the source of inhibitor to be tested in vitro against normal (naive) platelets from donor dogs. Briefly, PRP from non-treated dogs was added to wells containing plasma samples from treated dogs in a 96 well microtiter plate. ADP (20 μM) was added to the platelet suspension in each well to induce aggregation. Optical density at 405 nanometers was measured on all wells simultaneously in a platereader (Thermomax microplate reader, Molecular Devices, Menlo Park, Calif.). The results were quantified by comparison to a standard inhibition curve prepared in plasma using known amounts of SCa."}, "[5]": {"conditions": "no SCa, ASA 2.8 mg/kg iv bolus, heparin 200 units/kg bolus then 1000 units/hour"}, "[6]": {"conditions": "no SCa, ASA 2.8 mg/kg iv bolus, heparin 200 units/kg bolus then 1000 units/hour, mean±SEM, n=6"}, "[7]": {"conditions": "no SCa, ASA 2.8 mg/kg iv bolus, heparin 200 units/kg bolus then 1000 units/hourly, mean ± SEM, n=6/group"}, "[8]": {"conditions": "no SCa, ASA 2.8 mg/kg iv bolus, heparin 200 units/kg bolus then 1000 units/hourly, n=6/group"}, "[9]": {"conditions": "0.6 × SCa (0.52//0.23 μg/kg/min iv), mean±SEM, n=6"}, "[10]": {"conditions": "0.6 × SCa (0.52//0.23 μg/kg/min iv)"}, "[11]": {"conditions": "1 × SCa (0.87//0.39 μg/kg/min iv)"}}, "note": "Several values for one entry are separate records, joined by “and”; a condition that tells them apart may be missing. Equal entries are not always repeated."}
{"compound": "CC(=O)Oc1ccccc1C(=O)O", "note": "[ASA, acetylsalicyclic acid, reference compound]", "values": [{"measurement": "occurrence of thrombosis (occlusive thrombus) in dogs", "setting": "[1]; no SCa, ASA 2.8 mg/kg iv bolus, 180 minutes of anodal current, n=6", "result": "did occur before the completion of the 180 minutes of current in all of the dogs"}, {"measurement": "effectiveness in the thrombosis model", "setting": "[1]; [5]", "result": "not effective"}, {"measurement": "time to zero flow", "setting": "[1]; [6]", "result": "64 ± 7", "unit": "min"}, {"measurement": "Mean CFV/Minute (×100)", "setting": "[1]; [7]", "result": "6 ± 2 CFV/Minute (×100)"}, {"measurement": "Number of Dogs with CFV", "setting": "[1]; [8]", "result": "6/6"}]}
{"compound": "C#C[C@H](CC(=O)OCC)NC(=O)CCC(=O)Nc1ccc(C(=N)N)cc1", "note": "[Example 1, Ethyl 3S-[[4-[[4-(aminoiminomethyl)phenyl]-amino]-1,4-dioxobutyl]amino]-4-pentynoate]", "values": [{"measurement": "IC50", "setting": "[2]", "result": 4600, "unit": "nM"}]}
{"compound": "C#C[C@H](CC(=O)O)NC(=O)CCC(=O)Nc1ccc(C(=N)N)cc1", "note": "[Example 2]", "values": [{"measurement": "IC50", "setting": "[2]", "result": 70, "unit": "nM"}, {"measurement": "dogs with occlusive thrombus / LCCA thrombosis", "setting": "[1]; 0.5 × SCa (0.425//0.20 μg/kg/min iv) alone or with ASA and/or heparin, 180 minutes of anodal current, n=6/group", "result": "4 of 6"}, {"measurement": "Mean CFV/Minute (×100)", "setting": "[1]; 0.5 × SCa (0.425//0.20 μg/kg/min iv) alone or with ASA and/or heparin, mean ± SEM, n=6/group", "result": "5 ± 1 CFV/Minute (×100)"}, {"measurement": "Number of Dogs with CFV", "setting": "[1]; 0.5 × SCa (0.425//0.20 μg/kg/min iv) alone or with ASA and/or heparin, n=6/group", "result": "6/6"}, {"measurement": "time to zero flow", "setting": "[1]; 0.5 × SCa (0.425//0.20 μg/kg/min iv), mean±SEM, n=6", "result": "130 ± 22", "unit": "min"}, {"measurement": "Mean CFV/Minute (×100)", "setting": "[1]; [9]", "result": "3 ± 1 CFV/Minute (×100)"}, {"measurement": "time to zero flow", "setting": "[1]; [9]", "result": "158 ± 15", "unit": "min"}, {"measurement": "Number of Dogs with CFV", "setting": "[1]; 0.6 × SCa (0.52//0.23 μg/kg/min iv), n=6", "result": "4/6"}, {"measurement": "occurrence of thrombosis (occlusive thrombus) in dogs", "setting": "[1]; 1 × SCa (0.87//0.39 μg/kg/min iv), 180 minutes of anodal current, n=6", "result": "did not occur in any of the dogs"}, {"measurement": "Mean CFV/Minute (×100)", "setting": "[1]; 1 × SCa (0.87//0.39 μg/kg/min iv), during anodal stimulation of the LCCA, mean ± SEM, n=6", "result": "0.7 ± 0.7 CFV/Minute (×100)"}, {"measurement": "Number of Dogs with CFV", "setting": "[1]; 1 × SCa (0.87//0.39 μg/kg/min iv), n=6, listed as SCa", "result": "1 of 6 and 1/6"}, {"measurement": "time to zero flow", "setting": "[1]; 1 × SCa (0.87//0.39 μg/kg/min iv, loading 15 min // maintenance), 180 min = end of protocol with no occlusion, mean±SEM, n=6", "result": "180 ± 0", "unit": "min"}, {"measurement": "steady-state inhibition of platelet aggregation (Percent Inhibition)", "setting": "[3]; 0.5 × SCa (0.425//0.20 μg/kg/min iv) alone or with ASA 2.8 mg/kg bolus and/or heparin 200 units/kg + 1000 units/hour", "result": "70±4", "unit": "%"}, {"measurement": "steady-state inhibition of platelet aggregation (Percent Inhibition)", "setting": "[3]; [10]", "result": "83±3", "unit": "%"}, {"measurement": "steady-state inhibition of platelet aggregation (Percent Inhibition)", "setting": "[3]; [11]", "result": "92±5", "unit": "%"}, {"measurement": "Plasma Level of SCa", "setting": "[4]; 0.5 × SCa (0.425//0.20 μg/kg/min iv)", "result": "35 ± 8", "unit": "ng/mL"}, {"measurement": "Plasma Level of SCa", "setting": "[4]; [10]", "result": "48 ± 7", "unit": "ng/mL"}, {"measurement": "Plasma Level of SCa", "setting": "[4]; [11]", "result": "57 ± 4", "unit": "ng/mL"}]}
{"compound": "Heparin [reference compound]", "values": [{"measurement": "effectiveness in the thrombosis model", "setting": "[1]; [5]", "result": "not effective"}, {"measurement": "time to zero flow", "setting": "[1]; [6]", "result": "114 ± 16", "unit": "min"}, {"measurement": "Mean CFV/Minute (×100)", "setting": "[1]; [7]", "result": "5 ± 1 CFV/Minute (×100)"}, {"measurement": "Number of Dogs with CFV", "setting": "[1]; [8]", "result": "6/6"}, {"measurement": "steady-state inhibition of platelet aggregation", "setting": "[3]; [5]", "result": "13±2", "unit": "%"}]}
